Experimental data from US11045457B2, “Piperidinyl-3-(aryloxy)propanamides and propanoates” (priority 2018, dated 2021).

Tests used:
SSTR4 [1] = target: T1, SSTR4 (Homo sapiens (Human), UniProt P31391); assay: SSTR4 I-125 somatostatin competition binding assay (membranes from CHO-K1 cells overexpressing SSTR4); conditions: competition with I-125 labeled somatostatin; for IC50: read-out: SSTR4 Binding pIC50 (converted)
Method: Membranes from CHO-K1 cells overexpressing SSTR4 are purchased from Perkin Elmer (catalog number ES-524-M400UA). Test compounds are suspended in DMSO and then diluted in assay buffer (25 mM HEPES pH 7.4, 10 mM MgCl2, 1 mM CaCl2), 0.5% BSA) plus 0.2 nM I-125 labeled somatostatin (Perkin Elmer catalog number NEX389). […] Then 1 μg of SSTR4 membranes in 50 μL assay buffer are added per well. The Plate is incubated for 60 minutes at room temperature. FilterMat A filters (Perkin Elmer catalog number 1450-421) are pre-soaked in 0.5% PEI (Sigma catalog number P3143). The contents of the assay plate are transferred to filters with a TomTech harvester and washed 5 times with 20 mM HEPES, 100 mM NaCl. The filters are dried in a microwave oven then transferred to sample bag containing a scintillator sheet (Perkin Elmer catalog number 1450-441). The scintillator sheets are melted to filters using a heat block. The filters are then read in a MicroBeta scintillation counter. Binding Ki curves are generated using Activity Base for Screening Data Management and the results are reported as pIC50.

SSTR4 [2] = target: T1, SSTR4; assay: Inhibition of forskolin stimulated cAMP in CHO-K1 cells overexpressing SSTR4; assay type: cell-based; conditions: for EC50: read-out: SSTR4 Activity pEC50 (converted)
How it was run: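 Read-out is a HTRF LANCE Ultra cAMP competition using Eu-labelled streptavidin and biotin-cAMP, incubated 60 min at room temperature. It followed a 30 min room-temperature exposure of Kreb's Ringer-washed cells to compound plus forskolin. Potency is expressed as pEC50.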

T1 sequence (P31391 whole entry): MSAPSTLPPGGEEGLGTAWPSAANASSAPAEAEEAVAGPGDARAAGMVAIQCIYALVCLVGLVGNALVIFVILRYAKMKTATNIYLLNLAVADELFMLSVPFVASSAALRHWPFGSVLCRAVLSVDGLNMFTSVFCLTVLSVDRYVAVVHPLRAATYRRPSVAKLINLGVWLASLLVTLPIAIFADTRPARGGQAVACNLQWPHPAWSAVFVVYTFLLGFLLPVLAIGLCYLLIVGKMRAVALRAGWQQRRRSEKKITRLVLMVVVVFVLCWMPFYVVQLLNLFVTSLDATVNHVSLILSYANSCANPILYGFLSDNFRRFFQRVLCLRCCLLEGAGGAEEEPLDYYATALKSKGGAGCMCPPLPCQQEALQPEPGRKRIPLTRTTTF

SSTR4 Binding pIC50 (SSTR4 [1])	SSTR4 Activity pEC50 (SSTR4 [2])	IC50 (SSTR4 [1])	EC50 (SSTR4 [2])	SMILES
8.1	8.2			CC(C)(COc1ncccc1C(F)(F)F)C(=O)N[C@H]1CCNC[C@@H]1F [Example 158, N-((3S,4S)-3-fluoropiperidin-4-yl)-2,2-dimethyl-3-((3-(trifluoromethyl)pyridin-2-yl)oxy)propanamide]
6.7	7.5			Cc1cccnc1OCC(F)(F)C(=O)N[C@H]1CCNC[C@@H]1F [Example 201, 2,2-difluoro-N-((3S,4S)-3-fluoropiperidin-4-yl)-3-((3-methylpyridin-2-yl)oxy)propanamide]
7.7	8.7			C[C@H]1CN(C)CC[C@@H]1NC(=O)C(C)(C)COc1ncccc1OC(F)(F)F [Example 107, N-((3S,4S)-1,3-dimethylpiperidin-4-yl)-2,2-dimethyl-3-((3-(trifluoromethoxy)pyridin-2-yl)oxy)propanamide]
7.2	8.3			C[C@@H]1CN(C)CC[C@H]1NC(=O)C(C)(C)COc1ncccc1C1CC1 (relative stereo) [Example 20, trans-3-((3-cyclopropylpyridin-2-yl)oxy)-N-(1,3-dimethylpiperidin-4-yl)-2,2-dimethylpropanamide]
8.0	8.7			CC[C@@H]1CN(C)CC[C@H]1NC(=O)C(C)(C)COc1ncccc1C(F)(F)F (single isomer, unassigned) [Example 144]
6.5	7.4			Cc1cnc(OCC(C)(C)C(=O)NC2CCN(C)CC2)c(C)c1 [Example 84, 3-((3,5-dimethylpyridin-2-yl)oxy)-2,2-dimethyl-N-(1-methylpiperidin-4-yl)propanamide]
6.0	6.7			COc1cccnc1OCC(C)(C)C(=O)NC1CCN(C)CC1 [Example 49, 3-((3-methoxypyridin-2-yl)oxy)-2,2-dimethyl-N-(1-methylpiperidin-4-yl)propanamide]
		0.2 µM	0.0794 µM	C[C@H]1C[C@@H](NC(=O)C(F)(F)COc2ncccc2C(F)(F)F)CCN1C (racemic) [Example 191, cis-N-(1,2-dimethylpiperidin-4-yl)-2,2-difluoro-3-((3-(trifluoromethyl)pyridin-2-yl)oxy)propanamide]
6.8	7.4			Cc1cnc(OCC(C)(C)C(=O)N[C@H]2CCN(C)C[C@@H]2C)c(C)c1 [Example 141, N-((3S,4S)-1,3-dimethylpiperidin-4-yl)-3-((3,5-dimethylpyridin-2-yl)oxy)-2,2-dimethylpropanamide]
		0.00501 µM	0.000631 µM	CC[C@@H]1CN(C)CC[C@H]1NC(=O)C(C)(C)COc1ncccc1OC(F)(F)F (racemic) [Example 115, N-(trans-3-ethyl-1-methylpiperidin-4-yl)-2,2-dimethyl-3-((3-(trifluoromethoxy)pyridin-2-yl)oxy)propanamide]
6.7	7.7			C[C@@H]1C[C@H](NC(=O)C(F)(F)COc2ncccc2OC(F)(F)F)CCN1C [Example 206, N-((2R,4R)-1,2-dimethylpiperidin-4-yl)-2,2-difluoro-3-((3-(trifluoromethoxy)pyridin-2-yl)oxy)propanamide]
6.2	7.5			Cc1cnc(OCC(C)(C)C(=O)N[C@@H]2CCN(C)[C@H](C)C2)c(C)c1 [Example 218, N-((2R,4R)-1,2-dimethylpiperidin-4-yl)-3-((3,5-dimethylpyridin-2-yl)oxy)-2,2-dimethylpropanamide]
		0.251 µM	0.0251 µM	Cc1cnc(OCC(C)(C)C(=O)N[C@@H]2CCN(C)C[C@H]2C)c(C)c1 (single isomer, unassigned) [Example 31, trans-N-(1,3-dimethylpiperidin-4-yl)-3-((3,5-dimethylpyridin-2-yl)oxy)-2,2-dimethylpropanamide]
7.5	8.5			C[C@H]1CNCC[C@@H]1NC(=O)C(C)(C)COc1ccccc1F [Example 196, 3-(2-fluorophenoxy)-2,2-dimethyl-N-((3S,4S)-3-methylpiperidin-4-yl)propanamide]
			0.02 µM	CN1C[C@@H](NC(=O)C(C)(C)COc2ncccc2C2CC2)[C@H](c2ccc(Cl)cc2)C1 (relative stereo) [Example 94, trans-N-(4-(4-chlorophenyl)-1-methylpyrrolidin-3-yl)-3-((3-cyclopropylpyridin-2-yl)oxy)-2,2-dimethylpropanamide]
			0.126 µM	C[C@@H]1CN(C)CC[C@@H]1NC(=O)C(C)(C)COc1ncccc1C(F)(F)F (racemic) [Example 12, cis-N-(1,3-dimethylpiperidin-4-yl)-2,2-dimethyl-3-((3-(trifluoromethyl)pyridin-2-yl)oxy)propanamide]
	7.3			Cc1ccc(C)c(OCC(C)(C)C(=O)NC2CCN(C)CC2)n1 [Example 83, 3-((3,6-dimethylpyridin-2-yl)oxy)-2,2-dimethyl-N-(1-methylpiperidin-4-yl)propanamide]
			0.0794 µM	Cc1ccc([C@@H]2CN(C)C[C@H]2NC(=O)C(C)(C)COc2ncccc2C)cn1 (relative stereo) [Example 60, trans-2,2-dimethyl-N-(1-methyl-4-(6-methylpyridin-3-yl)pyrrolidin-3-yl)-3-((3-methylpyridin-2-yl)oxy)propanamide]
	6.2			CN1CCC(NC(=O)C(C)(C)COc2ncccc2C(F)(F)F)CC12CC2 (stereo not drawn) [Example 175, 2,2-dimethyl-N-(4-methyl-4-azaspiro[2.5]octan-7-yl)-3-((3-(trifluoromethyl)pyridin-2-yl)oxy)propanamide]

SMILES	SSTR4 Binding pIC50 (SSTR4 [1])	SSTR4 Activity pEC50 (SSTR4 [2])	IC50 (SSTR4 [1])	EC50 (SSTR4 [2])
C[C@@H]1CN(C)CC[C@H]1NC(=O)C(C)(C)COc1ncccc1C(F)(F)F (relative stereo) [Example 11, trans-N-(1,3-dimethylpiperidin-4-yl)-2,2-dimethyl-3-((3-(trifluoromethyl)pyridin-2-yl)oxy)propanamide]	7.0	8.0		
Cc1cccnc1OCC(C)(C)C(=O)NC1CCN(C)CC1 [Example 1, 2,2-dimethyl-N-(1-methylpiperidin-4-yl)-3-((3-methylpyridin-2-yl)oxy)propanamide]	6.4	7.3		
C[C@H]1C[C@@H](NC(=O)C(C)(C)COc2ncccc2C(F)(F)F)CCN1C (relative stereo) [Example 129, cis-N-(1,2-dimethylpiperidin-4-yl)-2,2-dimethyl-3-((3-(trifluoromethyl)pyridin-2-yl)oxy)propanamide]	6.8	7.7		
C[C@H]1C[C@@H](NC(=O)C(C)(C)COc2ncccc2C(F)(F)F)CCN1C [Example 178, N-((2S,4S)-1,2-dimethylpiperidin-4-yl)-2,2-dimethyl-3-((3-(trifluoromethyl)pyridin-2-yl)oxy)propanamide]	6.5			
C[C@@H]1C[C@H](NC(=O)C(C)(C)COc2ncccc2C(F)(F)F)CCN1C [Example 176]	7.1	7.7		
